Laboratory results published in patent publication US10030064B2, “Mammalian cell culture processes for protein production” (priority 2009, dated 2018).

Columns and labels:
Assay type in all cases: cell-based, Chinese hamster
[1] = system: CHO DG44 cell line expressing the fusion glycoprotein; assay: Shake flask CHO culture: total sialic acid content, N-linked and O-linked oligosaccharide profile of the secreted fusion glycoprotein
Protocol: The CHO cell line used in this study was originally subcloned from DG44 parental cells and cultured in a proprietary protein-free growth medium.
(§1) The experiments were carried out in 250-mL shake flasks (VWR international) with starting volumes of 100 mL and initial cell densities of 6×10^5 cells/mL. The cultures were placed on a shaker platform (VWR international) at 150 rpm and maintained at 37° C. and 6% CO2 for ten days. The cultures were sampled daily and the pH was adjusted as needed using 1M sodium carbonate and fed with glucose and glutamine every two days in order to maintain them at adequate levels. Cell density and viability were measured offline using a Cedex automated cell counter (Innovatis AG, Bielefeld, Germany). Culture pH and concentrations for glucose and glutamine were measured off-line using a Bioprofile Analyzer 400 (Nova Biomedical Corporation, Waltham, Mass.).
(§2) The sialic acid to recombinant protein molar ratio was calculated by determining the sialic acid and recombinant protein concentrations. Sialic acid (SA), including N-Acetylneuraminic (Neu5Ac) and N-glycolylneuraminic acid (Neu5Gc), was released by partial acid hydrolysis. The derivatives were then separated by reversed-phase HPLC to determine sialic acid content. The protein concentrations were determined by UV absorbance at 280 nm. Sialic acid content is reported as molar ratios, which is the total moles of Neu5Ac and Neu5Gc per mole of recombinant glycoprotein. Sialic acid contents are reported as normalized values, which are the actual values divided by an arbitrary value. The same divisor was used to normalize all sialic acid content data in the studies reported here.
(§3) High-pH anion-exchange chromatography with pulsed amperometric detection (HPAEC-PAD) was used for the profiling of N-linked oligosaccharides (Base and Spellman 1990; Townsend and Hardy 1991) to provide information on site-specific N-linked glycosylation. N-linked oligosaccharides were cleaved from protein and separated on HPAEC-PAD into four domains based on the amount of sialic acid present. Domain I represents the asialo species. Domains II, III, and IV are sialylated species and represent monosialylated, disialylated, and tri- and tetrasialylated species, respectively. N-linked sialylated species fraction is reported as the percentage of N-linked sialylated species within the total N-linked oligosaccharides species, which includes both asialo and sialylated species. N-linked sialylated species fractions are reported as normalized values, which are the actual values divided by an arbitrary value. The same divisor was used to normalize all N-linked sialylated species fraction data in the studies reported here.
O-linked glycosylation was characterized by intact mass analysis of a reference standard and Protein-A purified samples of the fusion protein (Reference). Samples were diluted in 100 mM Tris, 25 mM NaCl, pH 7.6 and incubated with PNGase F overnight to enzymatically remove all N-linked oligosaccharides. Samples were then injected for intact mass analysis after mixing with an internal standard of insulin. O-linked sialic acid content is reported as molar ratios, which is the moles of O-linked sialic acid per mole of recombinant glycoprotein.
This study was performed in duplicate 250-mL shake flasks using the culture conditions as described above. […] Cultures were harvested on day 10, and the fusion protein was purified using a protein A column and analyzed for total sialic acid content, O-linked sialic acid content and the N-linked profile.

CHO cells [2] = assay: Shake flask CHO culture: cell viability profile (Example 1); conditions: 1 μM DEX from day 2
Protocol: as §1

CHO cells [3] = assay: Fed-batch 5-L bioreactor CHO culture: sialic acid content and N-linked sialylated species fraction; conditions: 1 μM DEX bolus addition
Protocol: Bioreactor experiments were performed in 5-L bioreactors (Sartorius AG, Goettingen, Germany) with initial working volumes of 1.5 L. Agitation, pH, and dissolved oxygen were controlled at 150 rpm, 7.05, and 50% air saturation, respectively. Temperature was initially controlled at 37° C., but was shifted to a lower temperature during the culture to extend culture viability. The bioreactors were operated in fed-batch mode and were fed daily starting on day 3 with the proprietary feed medium to maintain adequate concentrations for glucose and other nutrients. Samples were taken during the cell culture process and analyzed for cell density, cell viability, substrates and metabolites.
as §2, §3
The bioreactors were operated as described in the methods section.

[4] = system: GILZ (glucocorticoid-induced leucine zipper); assay: qRT-PCR of GILZ gene expression in CHO cells; conditions: 1 μM DEX added day 2
Protocol: Purified RNA was treated with RNasefree DNaseI (Qiagen) and then used as a template to synthesize the first-strand cDNA using RT^2 First Strand Kit (SA Biosciences, Frederick, Md.). Expression of GILZ was quantitatively determined using GILZ specific TaqMan MGB probe (6-FAM-[…]) and primers (Forward: 5-[…]-3 and Reverse: 5-[…]-3). 20 ng of cDNA was amplified using 900 nM primers and 250 nM probe in 1× TaqMan Fast Universal PCR Master Mix (Applied Biosystems, Carlsbad, Calif.). Reactions were run in triplicate on the Applied Biosystems 7500 Fast Real-Time PCR System using the universal cycling parameters (20 s 95° C., 40 cycles of 3 s 95° C., 30 s 60° C.). Parallel reactions were set up on the same plate analyzing β-Actin in each sample as an endogenous control. The threshold cycle of each gene was normalized against the threshold cycle of “housekeeping gene” […]. Normalized changes in gene expression with respect to the control were calculated using delta-delta threshold cycle method (Livak and Schmittgen, 2001).
GILZ was analyzed using qRT-PCR to validate the gene expression profiles obtained by microarray analysis. […] Parallel reactions were set up on the same plate analyzing β-Actin in each sample as an endogenous control.

[5] = 0.1 μM DEX, with 1 μM RU-486 added 24 hours before DEX
[6] = DEX 0.01 μM added day 2, harvest day 10
[7] = DEX 0.1 μM added day 2, harvest day 10
[8] = DEX 1.0 μM added day 2, harvest day 10
[9] = DEX 10 μM added day 2, harvest day 10

## C[C@@H]1C[C@H]2[C@@H]3CCC4=CC(=O)C=C[C@]4(C)[C@@]3(F)[C@@H](O)C[C@]2(C)[C@@]1(O)C(=O)CO [DEX, dexamethasone]
[1]; [5]
  normalized N-linked sialylated species fraction: 81.5±0.8
  normalized total sialic acid content: 12.7±0.1
[1]; 0.1 μM DEX, without RU-486
  normalized N-linked sialylated species fraction: 92.2±2.0
[1]; [6]
  Percent increase of N-link asialo-: −8.6%
  Percent increase of N-link-Di-: 13.9%
  Percent increase of N-link-Mono-: 6.6%
  Percent increase of N-link-Tri and tetra-: 4.5%
  Percent increase of O-link SA: 0.0%
[1]; DEX 0.01 μM added day 2, harvest day 10, vs control
  Percent increase of SA: 9.3%
[1]; [7]
  Percent increase of N-link asialo-: −9.6%
  Percent increase of N-link-Di-: 13.9%
  Percent increase of N-link-Mono-: 7.3%
  Percent increase of N-link-Tri and tetra-: 13.6%
  Percent increase of O-link SA: 0.5%
[1]; DEX 0.1 μM added day 2, harvest day 10, vs control
  Percent increase of SA: 13.0%
[1]; [8]
  Percent increase of N-link asialo-: −10.0%
  Percent increase of N-link-Di-: 19.4%
  Percent increase of N-link-Mono-: 4.3%
  Percent increase of O-link SA: 0.9%
[1]; DEX 1.0 μM added day 2, harvest day 10, vs control
  Percent increase of SA: 13.0%
[1]; [9]
  Percent increase of N-link asialo-: −15.6%
  Percent increase of N-link-Di-: 24.3%
  Percent increase of N-link-Mono-: 7.3%
  Percent increase of N-link-Tri and tetra-: 20.5%
  Percent increase of O-link SA: 0.0%
[1]; DEX 10 μM added day 2, harvest day 10, vs control
  Percent increase of SA: 20.4%
CHO cells [2]; day 4
  Cell viability: 98.0±0.1%
CHO cells [2]; day 10
  Cell viability: 85.0±2.7%
CHO cells [3]
  change of sialylated fraction between days 8 to 14: −7.7%
  change of total sialic acid content between days 8 to 14: −7.8%
CHO cells [3]; day 8
  normalized N-linked sialylated species fraction: 97.7±0.9
  normalized total sialic acid content: 17.9±0.1
CHO cells [3]; day 14
  increase of N-linked sialylated species fraction vs control: 15.8%
  increase of total sialic acid content vs control: 16.2%
  normalized N-linked sialylated species fraction: 90.2±1.3
  normalized total sialic acid content: 16.5±0.1
[4]; day 5 samples
  normalized expression profile change of GILZ (qRT-PCR): 7.66±1.08
[4]; day 8 samples
  normalized expression profile change of GILZ (qRT-PCR): 10.48±2.16
